Measured values as given in US7029916B2, “Apparatus and method for flow electroporation of biological samples” (MAXCYTE, Inc., priority 2001, dated 2006).

Legend:
[1] = target: T1, hemoglobin (Homo sapiens, UniProt P68871); settings: relative to DPG; cited from earlier work
[2] = target: T1, hemoglobin; settings: pH 7.4, 37° C.; cited from earlier work
[3] = test system: resting Lymphocytes; test: Transfection efficiency analysis, resting lymphocytes; type: cell-based
Description: Primary lymphocytes were suspended in B&K buffer (125 mM KCl, 15 mM NaCl, 1.2 mM MgCl2, 3 mM glucose, 25 mM Hepes, pH 7.4) cell concentration was set from 1×10^7 cells/mL to 6×10^8 cells/mL together with DNA plasmid from 50 μg/mL to 1 mg/mL. Electroporation, 2.3 kV/cm, 400 μs, 4 pulses for small volume experiments (15 μl) or 2.2 kV/cm, 1.6 ms, 1 pulse for large volume experiments (0.5 mL–2 mL) was performed at room temperature. Following electroporation, cells were incubated in B&K buffer for 20 min at 37° C. for small volume experiments, or diluted by 10× volume of culture medium (RPMI-1640+10% fetal bovine serum+1% Pen-strep+2 mM L-glutamine) for large volume experiments. Cells were cultured in culture medium for various periods (up to 72 hours) and the transfection efficiency was analyzed.
Seven transgenes (Ds-Red, eGFP, βGal, hEndostatin, hEPO, hIFNα, hIL-2) were tested in these experiments. […] When pCMV-Ds-Red or pCMV-EGFP was used, the percentage of the fluorescent cells was counted, by FACS or by manual counting under phase contrast and fluorescence microscope, as the transfection efficiency. […] When pCMV-Endostatin was used, the Endostatin concentration in the supernatant was analyzed by ELISA kit from Cytimmune Sciences, Inc. (College Park, Md.). For pCMV-EPO electroporation, the erythropoietin concentration in the supernatant was analyzed by R&D ELISA kit (Minneapolis, Minn.).

T1 sequence (P69905 2-142 partner limits assumed): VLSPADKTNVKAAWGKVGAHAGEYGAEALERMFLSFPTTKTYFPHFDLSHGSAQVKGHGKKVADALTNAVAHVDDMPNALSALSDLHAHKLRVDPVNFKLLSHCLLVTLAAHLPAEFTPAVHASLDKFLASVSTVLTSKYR
T1 sequence (P68871 2-147 limits assumed): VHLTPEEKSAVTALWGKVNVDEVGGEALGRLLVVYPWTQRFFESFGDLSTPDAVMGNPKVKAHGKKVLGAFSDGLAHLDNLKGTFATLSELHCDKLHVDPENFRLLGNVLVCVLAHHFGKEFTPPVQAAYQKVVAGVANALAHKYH

Compound: O=P(O)(O)O[C@H]1[C@H](OP(=O)(O)O)[C@@H](OP(=O)(O)O)[C@H](OP(=O)(O)O)[C@@H](OP(=O)(O)O)[C@H]1OP(=O)(O)O [IHP, inositol hexaphosphate]
- affinity to hemoglobin, higher than DPG [1]: 1000 fold
- P50 of hemoglobin [2]: ≤ 96.4 mm Hg

Compound: βGal
- Efficiency (% of + cells) [3]: 15%
- Viability [3]: 40%
